Experimental data from patent publication US20250186437A1, “CARBOLINE COMPOUNDS AND USE THEREOF” (PTC Therapeutics, Inc., priority 2021, published 2025).

Tested on: MOLM-13 cells
Assay: MOLM-13 Cell Proliferation Assay (indicator of DHODH inhibition)
Assay type: cell-based
Details: Homo sapiens, 72 Hours of culture, CellTiter-Glo, no uridine
In short: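 Proliferation readout via CellTiter-Glo luminescence after 72 h compound treatment (37 °C, 5% CO2, 0.5% DMSO) of MOLM-13 cells seeded at 10^4 per well in RPMI 1640/10% FBS, used as a DHODH-inhibition indicator since these cells rely on de novo pyrimidine synthesis.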

Row | Compound | IC50 [nM]
1 | Cc1ccc(C2c3[nH]c4ccc(Cl)c([N+](=O)[O-])c4c3CCN2c2nccc(C(F)(F)F)n2)c(F)c1F (stereo not drawn) [Compound 266, 6-chloro-1-(2,3-difluoro-4-methylphenyl)-5-nitro-2-[4-(trifluoromethyl)pyrimidin-2-yl]-2,3,4,9-tetrahydro-1H-pyrido[3,4-b]indole] | 1.3
2 | Fc1cc(Cl)ccc1C1c2[nH]c3ccc(Cl)cc3c2CCN1c1nccc(C(F)(F)F)n1 (stereo not drawn) [Compound 267, 6-chloro-1-(4-chloro-2-fluorophenyl)-2-[4-(trifluoromethyl)pyrimidin-2-yl]-2,3,4,9-tetrahydro-1H-pyrido[3,4-b]indole] | 2.7
3 | Fc1cc(Br)ccc1C1c2[nH]c3ccc(Cl)cc3c2CCN1c1nccc(C(F)(F)F)n1 (stereo not drawn) [Compound 268, 1-(4-bromo-2-fluorophenyl)-6-chloro-2-[4-(trifluoromethyl)pyrimidin-2-yl]-2,3,4,9-tetrahydro-1H-pyrido[3,4-b]indole] | 0.2
4 | FC(F)(F)c1ccnc(N2CCc3c([nH]c4ccc(Cl)cc34)C2c2ccc(-n3cnnc3)cc2)n1 (stereo not drawn) [Compound 269, 6-chloro-1-[4-(4H-1,2,4-triazol-4-yl)phenyl]-2-[4-(trifluoromethyl)pyrimidin-2-yl]-2,3,4,9-tetrahydro-1H-pyrido[3,4-b]indole] | 98.2
5 | Fc1c(Br)ccc(C2c3[nH]c4ccc(Cl)cc4c3CCN2c2nccc(C(F)(F)F)n2)c1F (stereo not drawn) [Compound 270, 1-(4-bromo-2,3-difluorophenyl)-6-chloro-2-[4-(trifluoromethyl)pyrimidin-2-yl]-2,3,4,9-tetrahydro-1H-pyrido[3,4-b]indole] | 0.3
6 | Fc1cc(-n2ccnc2)ccc1C1c2[nH]c3ccc(Cl)cc3c2CCN1c1ncccn1 (stereo not drawn) [Compound 274, 6-chloro-1-[2-fluoro-4-(1H-imidazol-1-yl)phenyl]-2-(pyrimidin-2-yl)-2,3,4,9-tetrahydro-1H-pyrido[3,4-b]indole] | 58.5
7 | Fc1cc(-n2ccnc2)ccc1C1c2[nH]c3ccc(Cl)cc3c2CCN1c1nccc(C(F)(F)F)n1 (stereo not drawn) [Compound 275, 6-chloro-1-[2-fluoro-4-(1H-imidazol-1-yl)phenyl]-2-[4-(trifluoromethyl)pyrimidin-2-yl]-2,3,4,9-tetrahydro-1H-pyrido[3,4-b]indole] | 7.3
8 | Cc1cc(O)c2[nH]c3c(c2c1)CCN(c1nccc(C(F)(F)F)n1)C3c1ccc(C)c(F)c1F (stereo not drawn) [Compound 276, 1-(2,3-difluoro-4-methylphenyl)-6-methyl-2-[4-(trifluoromethyl)pyrimidin-2-yl]-2,3,4,9-tetrahydro-1H-pyrido[3,4-b]indol-8-ol] | 0.6
9 | Fc1cc(N2CCOCC2)ccc1C1c2[nH]c3ccc(Cl)cc3c2CCN1c1nccc(C(F)(F)F)n1 (stereo not drawn) [Compound 277, 6-chloro-1-[2-fluoro-4-(morpholin-4-yl)phenyl]-2-[4-(trifluoromethyl)pyrimidin-2-yl]-2,3,4,9-tetrahydro-1H-pyrido[3,4-b]indole] | 5.4
10 | Fc1c(C2c3[nH]c4ccc(Cl)cc4c3CCN2c2nccc(C(F)(F)F)n2)ccc(N2CCOCC2)c1F (stereo not drawn) [Compound 279, 6-chloro-1-[2,3-difluoro-4-(morpholin-4-yl)phenyl]-2-[4-(trifluoromethyl)pyrimidin-2-yl]-2,3,4,9-tetrahydro-1H-pyrido[3,4-b]indole] | 5.1
11 | CCCCOC(=O)c1ccnc(N2CCc3c([nH]c4ccc(Cl)cc34)C2c2ccc(C)cc2)n1 (stereo not drawn) [Compound 280, butyl 2-[6-chloro-1-(4-methylphenyl)-1,3,4,9-tetrahydro-2H-pyrido[3,4-b]indol-2-yl]pyrimidine-4-carboxylate] | 4.1
12 | CCCCOC(=O)c1ccnc(N2CCc3c([nH]c4ccc(Cl)cc34)C2c2ccc(C)c(F)c2F)n1 (stereo not drawn) [Compound 281, butyl 2-[6-chloro-1-(2,3-difluoro-4-methylphenyl)-1,3,4,9-tetrahydro-2H-pyrido[3,4-b]indol-2-yl]pyrimidine-4-carboxylate] | 1.4
13 | Cc1nc(C)nc(N2CCc3c([nH]c4ccc(Cl)cc34)C2c2ccc(Br)c(F)c2F)n1 (stereo not drawn) [Compound 283, 1-(4-bromo-2,3-difluorophenyl)-6-chloro-2-(4,6-dimethyl-1,3,5-triazin-2-yl)-2,3,4,9-tetrahydro-1H-pyrido[3,4-b]indole] | 0.6
14 | Fc1c(C2c3[nH]c4ccc(Cl)cc4c3CCN2c2nccc(C(F)(F)F)n2)ccc(-n2ccnc2)c1F (stereo not drawn) [Compound 285, 6-chloro-1-[2,3-difluoro-4-(1H-imidazol-1-yl)phenyl]-2-[4-(trifluoromethyl)pyrimidin-2-yl]-2,3,4,9-tetrahydro-1H-pyrido[3,4-b]indole] | 2.8
15 | Cc1ccc(C2c3[nH]c4ccc(Cl)cc4c3CCN2c2nc(C)cc(C)n2)cc1 (stereo not drawn) [Compound 286, 6-chloro-2-(4,6-dimethylpyrimidin-2-yl)-1-(4-methylphenyl)-2,3,4,9-tetrahydro-1H-pyrido[3,4-b]indole] | 4.1
16 | Cc1ccc(C2c3[nH]c4ccc(-n5nccn5)cc4c3CCN2c2nccc(C(F)(F)F)n2)cc1 (stereo not drawn) [Compound 287, 1-(4-methylphenyl)-6-(2H-1,2,3-triazol-2-yl)-2-[4-(trifluoromethyl)pyrimidin-2-yl]-2,3,4,9-tetrahydro-1H-pyrido[3,4-b]indole] | 2.9
17 | Cc1nc(Cl)nc(N2CCc3c([nH]c4ccc(Cl)cc34)C2c2cnc(N3CCOCC3)nc2)n1 (stereo not drawn) [Compound 289, 6-chloro-2-(4-chloro-6-methyl-1,3,5-triazin-2-yl)-1-[2-(morpholin-4-yl)pyrimidin-5-yl]-2,3,4,9-tetrahydro-1H-pyrido[3,4-b]indole] | 27.1
18 | Cc1nc(N(C)C)nc(N2CCc3c([nH]c4ccc(Cl)cc34)C2c2cnc(N3CCOCC3)nc2)n1 (stereo not drawn) [Compound 290, 4-{6-chloro-1-[2-(morpholin-4-yl)pyrimidin-5-yl]-1,3,4,9-tetrahydro-2H-pyrido[3,4-b]indol-2-yl}-N,N,6-trimethyl-1,3,5-triazin-2-amine] | 19.7
19 | C=Cc1ccc2[nH]c3c(c2c1)CCN(c1nccc(C(F)(F)F)n1)C3c1ccc(C)cc1 (stereo not drawn) [Compound 291, 6-ethenyl-1-(4-methylphenyl)-2-[4-(trifluoromethyl)pyrimidin-2-yl]-2,3,4,9-tetrahydro-1H-pyrido[3,4-b]indole] | 4.4
20 | Cc1ccc(C2c3[nH]c4c(N)cc(Cl)cc4c3CCN2c2nc(C)nc(C)n2)cc1 (stereo not drawn) [Compound 292, 6-chloro-2-(4,6-dimethyl-1,3,5-triazin-2-yl)-1-(4-methylphenyl)-2,3,4,9-tetrahydro-1H-pyrido[3,4-b]indol-8-amine] | 12.1
21 | COc1nc(C)nc(N2CCc3c([nH]c4ccc(Cl)cc34)C2c2cnc(N3CCOCC3)nc2)n1 (stereo not drawn) [Compound 295, 6-chloro-2-(4-methoxy-6-methyl-1,3,5-triazin-2-yl)-1-[2-(morpholin-4-yl)pyrimidin-5-yl]-2,3,4,9-tetrahydro-1H-pyrido[3,4-b]indole] | 14.7
22 | Cc1nc(N2CCOCC2)nc(N2CCc3c([nH]c4ccc(Cl)cc34)C2c2cnc(N3CCOCC3)nc2)n1 (stereo not drawn) [Compound 296, 6-chloro-2-[4-methyl-6-(morpholin-4-yl)-1,3,5-triazin-2-yl]-1-[2-(morpholin-4-yl)pyrimidin-5-yl]-2,3,4,9-tetrahydro-1H-pyrido[3,4-b]indole] | 16.2
23 | CN(C)c1ncnc(N2CCc3c([nH]c4ccc(Cl)cc34)C2c2cnc(N3CCOCC3)nc2)n1 (stereo not drawn) [Compound 297, 4-{6-chloro-1-[2-(morpholin-4-yl)pyrimidin-5-yl]-1,3,4,9-tetrahydro-2H-pyrido[3,4-b]indol-2-yl}-N,N-dimethyl-1,3,5-triazin-2-amine] | 78
24 | FC(F)(F)c1ccnc(N2CCc3c([nH]c4ccc(Br)cc34)C2c2cnc(N3CCOCC3)nc2)n1 (stereo not drawn) [Compound 298, 6-bromo-1-[2-(morpholin-4-yl)pyrimidin-5-yl]-2-[4-(trifluoromethyl)pyrimidin-2-yl]-2,3,4,9-tetrahydro-1H-pyrido[3,4-b]indole] | 1.2
25 | Cc1nc(C)nc(N2CCc3c([nH]c4ccc(Br)cc34)C2c2cnc(N3CCOCC3)nc2)n1 (stereo not drawn) [Compound 299, 6-bromo-2-(4,6-dimethyl-1,3,5-triazin-2-yl)-1-[2-(morpholin-4-yl)pyrimidin-5-yl]-2,3,4,9-tetrahydro-1H-pyrido[3,4-b]indole] | 6.8
26 | Cc1nc(C)nc(N2CCc3c([nH]c4ccc(-n5nccn5)cc34)C2c2cnc(N3CCOCC3)nc2)n1 (stereo not drawn) [Compound 300, 2-(4,6-dimethyl-1,3,5-triazin-2-yl)-1-[2-(morpholin-4-yl)pyrimidin-5-yl]-6-(2H-1,2,3-triazol-2-yl)-2,3,4,9-tetrahydro-1H-pyrido[3,4-b]indole] | 20.5
27 | FC(F)(F)c1ccnc(N2CCc3c([nH]c4ccc(-n5cccn5)cc34)C2c2cnc(N3CCOCC3)nc2)n1 (stereo not drawn) [Compound 301, 1-[2-(morpholin-4-yl)pyrimidin-5-yl]-6-(1H-pyrazol-1-yl)-2-[4-(trifluoromethyl)pyrimidin-2-yl]-2,3,4,9-tetrahydro-1H-pyrido[3,4-b]indole] | 23.9
28 | COc1ccc2[nH]c3c(c2c1)CCN(c1nccc(C(F)(F)F)n1)C3c1cnc(N2CCOCC2)nc1 (stereo not drawn) [Compound 302, 6-methoxy-1-[2-(morpholin-4-yl)pyrimidin-5-yl]-2-[4-(trifluoromethyl)pyrimidin-2-yl]-2,3,4,9-tetrahydro-1H-pyrido[3,4-b]indole] | 7
29 | FC(F)(F)c1ccnc(N2CCc3c([nH]c4ccc(Cl)cc34)C2c2ccc(N3CCOCC3)nc2)n1 (stereo not drawn) [Compound 303, 6-chloro-1-[6-(morpholin-4-yl)pyridin-3-yl]-2-[4-(trifluoromethyl)pyrimidin-2-yl]-2,3,4,9-tetrahydro-1H-pyrido[3,4-b]indole] | 2.5
30 | Cc1nc(C)nc(N2CCc3c([nH]c4c(N)cc(Cl)cc34)C2c2ccc(C)c(F)c2F)n1 (stereo not drawn) [Compound 304, 6-chloro-1-(2,3-difluoro-4-methylphenyl)-2-(4,6-dimethyl-1,3,5-triazin-2-yl)-2,3,4,9-tetrahydro-1H-pyrido[3,4-b]indol-8-amine] | 93.9
